Source: ChEMBL document CHEMBL5523751, “Discovery of Novel Diaryl-Substituted Fused Heterocycles Targeting Katanin and Tubulin with Potent Antitumor and Antimultidrug Resistance Efficacy” (J Med Chem, 2024)
Activity calls are given as the source filed them. The calls are words filed in the database; no cut-off is given here.

How the values were obtained:
[1] = tested on: HeLa; assay: Antiproliferative activity against human HeLa assessed as inhibition of cell growth measured after 48 hrs by MTT assay; format: functional, cell-based
[2] = tested on: MCF7; assay: Induction of apoptosis in human MCF7 cells assessed as necrotic cells at 10 nM measured after 48 hrs by annexin-FITC and propidium iodide staining based flow cytometry analysis (reference value: 0.18%); format: functional
[3] = tested on: MDA-MB-468; assay: Antiproliferative activity against human MDA-MB-468 cells assessed as inhibition of cell growth measured after 48 hrs by MTT assay; format: functional, cell-based; settings: MDA-MB-468, 48 h
[4] = Tmax in mouse at 15 mg/kg, po measured upto 24 hrs by LC-MS/MS analysis; format: ADME, organism-based; settings: in vivo
[5] = biological target: T1, Katanin p60 ATPase-containing subunit A1 (Homo sapiens, UniProt O75449); assay: Binding affinity to N-terminal human Katanin p60 (8 to 229 residues) expressed in Escherichia coli Rosetta (DE3) assessed as dissociation constant by SPR analysis
[6] = tested on: PANC-1; assay: Antiproliferative activity against human PANC-1 assessed as inhibition of cell growth measured after 48 hrs by MTT assay; format: functional, cell-based; settings: PANC-1, 48 h
[7] = tested on: MCF7; assay: Induction of apoptosis in human MCF7 cells assessed as late apoptotic cells at 40 nM measured after 48 hrs by annexin-FITC and propidium iodide staining based flow cytometry analysis (reference value: 3.93%); format: functional
[8] = Toxicity in Balb/C nude mouse xenografted with A549/Taxol assessed as effect on body weight at 15 mg/kg, ip measured after 14 days by H and E staining based analysis; format: organism-based, A549/TR; settings: in vivo, 336 h, time 14 day
[9] = tested on: MDA-MB-231; assay: Downregulation of vimentin expression in human MDA-MB-231 cells at 5 to 40 nM by Western blot analysis; format: functional, cell-based; settings: dose 5-40 nM
[10] = tested on: MCF7; assay: Induction of apoptosis in human MCF7 cells assessed as necrotic cells at 40 nM measured after 48 hrs by annexin-FITC and propidium iodide staining based flow cytometry analysis (reference value: 0.18%); format: functional
[11] = Antiproliferative activity against cisplatin resistant human A2780/CDDP cells assessed as inhibition of cell growth measured after 48 hrs by MTT assay; format: functional, cell-based
[12] = Half life in mouse at 15 mg/kg, po measured upto 24 hrs by LC-MS/MS analysis; format: ADME, organism-based; settings: in vivo
[13] = tested on: MCF7; assay: Induction of apoptosis in human MCF7 cells assessed as early apoptotic cells at 10 nM measured after 48 hrs by annexin-FITC and propidium iodide staining based flow cytometry analysis (reference value: 1.20%); format: functional
[14] = MRT (0 to infinity) in mouse at 15 mg/kg, po measured upto 24 hrs by LC-MS/MS analysis; format: ADME, organism-based; settings: in vivo
[15] = Toxicity in Balb/C nude mouse assessed as abnormalities in liver at 7.5 to 15 mg/kg, ip measured after 14 days by H and E staining based analysis; format: organism-based; settings: in vivo, 336 h, dose 7.5-15 mg/kg, time 14 day
[16] = MRT (0 to t) in mouse at 15 mg/kg, po measured upto 24 hrs by LC-MS/MS analysis; format: ADME, organism-based; settings: in vivo
[17] = Toxicity in Balb/C nude mouse xenografted with A549/Taxol assessed as effect on lung at 15 mg/kg, ip measured after 14 days by H and E staining based analysis; format: organism-based, A549/TR; settings: in vivo, 336 h, time 14 day
[18] = tested on: HUVEC; assay: Anti-angiogenesis activity in human HUVEC cells assessed as disruption of capillary tube formation at 60 nM incubated for 6 hrs by inverted microscopic analysis relative to control; format: functional
[19] = Stability in mouse plasma assessed as half life at 1 uM measured upto 120 mins by LC-MS/MS analysis; format: ADME, cell-free
[20] = Antiproliferative activity against human CDDP-resistant A549 cell assessed as inhibition of cell growth measured after 48 hrs by MTT assay; format: functional, cell-based
[21] = tested on: MCF7; assay: Effect on katanin p60 protein level in katanin knockdown human MCF7 cells measured after 48 to 72 hrs by immunoblot analysis; format: functional, cell-based; settings: time 48-72 hrs
[22] = Toxicity in Balb/C nude mouse assessed as effect on body weight loss at 15 mg/kg, ip measured upto 2 weeks; format: organism-based; settings: in vivo, 336 h
[23] = Toxicity in Balb/C nude mouse assessed as abnormalities in heart at 7.5 to 15 mg/kg, ip measured after 14 days by H and E staining based analysis; format: organism-based; settings: in vivo, 336 h, dose 7.5-15 mg/kg, time 14 day
[24] = Acute toxicity in ICR mouse assessed as animal death at 200 mg/kg, ip measured after 3 to 14 days; format: organism-based; settings: in vivo, time 3-14 day
[25] = tested on: HUVEC; assay: Anti-angiogenesis activity in human HUVEC cells assessed as disruption of capillary tube formation at 30 nM incubated for 6 hrs by inverted microscopic analysis; format: functional, cell-based
[26] = biological target: T1, Katanin p60 ATPase-containing subunit A1; assay: Binding affinity to C-terminal human Katanin p60 (111 to 491 residues) expressed in Escherichia coli Rosetta (DE3) assessed as dissociation constant by SPR analysis
[27] = Toxicity in Balb/C nude mouse assessed as abnormalities in kidney at 7.5 to 15 mg/kg, ip measured after 14 days by H and E staining based analysis; format: organism-based; settings: in vivo, 336 h, dose 7.5-15 mg/kg, time 14 day
[28] = Toxicity in Balb/C nude mouse xenografted with A549/Taxol assessed as effect on spleen at 15 mg/kg, ip measured after 14 days by H and E staining based analysis; format: organism-based, A549/TR; settings: in vivo, 336 h, time 14 day
[29] = tested on: MCF7; assay: Induction of apoptosis in human MCF7 cells assessed as late apoptotic cells at 20 nM measured after 48 hrs by annexin-FITC and propidium iodide staining based flow cytometry analysis (reference value: 3.93%); format: functional
[30] = (§1) Inhibition of porcine brain tubulin polymerization; parameters: species or system Sus scrofa
[31] = species: Sus scrofa; assay: as §1; settings: dose 0.4-12 µM
[32] = tested on: HT-29; assay: Antiproliferative activity against human HT-29 cells assessed as inhibition of cell growth measured after 48 hrs by MTT assay; format: functional, cell-based; settings: HT-29, 48 h
[33] = Toxicity in Balb/C nude mouse xenografted with A549/Taxol assessed as changes in blood routine parameters at 15 mg/kg, ip measured after 14 days by biochemical assay; format: organism-based, A549/TR; settings: in vivo, 336 h, time 14 day
[34] = tested on: A2780/Taxol; assay: cells; settings: Homo sapiens, 48 h
[35] = tested on: MCF7; assay: Antiproliferative activity against katanin knockdown human MCF7 cells assessed as inhibition of cell growth at 0.2 to 25 nM measured after 48 hrs by MTT assay; format: functional, cell-based; settings: dose 0.2-25 nM
[36] = tested on: MDA-MB-231; assay: Antitumor activity against human MDA-MB-231 cells xenografted in BALB/c nude mouse model assessed as increase in tumor necrosis at 7.5 to 15 mg/kg, ip measured after 14 days by H and E staining based analysis; format: functional, organism-based; settings: dose 7.5-15 mg/kg, time 14.0 day
[37] = Acute toxicity in ICR mouse assessed as animal death at 50 mg/kg, ip measured after upto 14 days; format: organism-based; settings: in vivo, 336 h, time < 14 day
[38] = Toxicity in Balb/C nude mouse xenografted with A549/Taxol assessed as effect on liver at 15 mg/kg, ip measured after 14 days by H and E staining based analysis; format: organism-based, A549/TR; settings: in vivo, 336 h, time 14 day
[39] = tested on: A2780; assay: Antiproliferative activity against human A2780 cells assessed as inhibition of cell growth measured after 48 hrs by MTT assay; format: functional, cell-based; settings: A2780, 48 h

T1 sequence (O75449 whole entry, the tested form may be a part): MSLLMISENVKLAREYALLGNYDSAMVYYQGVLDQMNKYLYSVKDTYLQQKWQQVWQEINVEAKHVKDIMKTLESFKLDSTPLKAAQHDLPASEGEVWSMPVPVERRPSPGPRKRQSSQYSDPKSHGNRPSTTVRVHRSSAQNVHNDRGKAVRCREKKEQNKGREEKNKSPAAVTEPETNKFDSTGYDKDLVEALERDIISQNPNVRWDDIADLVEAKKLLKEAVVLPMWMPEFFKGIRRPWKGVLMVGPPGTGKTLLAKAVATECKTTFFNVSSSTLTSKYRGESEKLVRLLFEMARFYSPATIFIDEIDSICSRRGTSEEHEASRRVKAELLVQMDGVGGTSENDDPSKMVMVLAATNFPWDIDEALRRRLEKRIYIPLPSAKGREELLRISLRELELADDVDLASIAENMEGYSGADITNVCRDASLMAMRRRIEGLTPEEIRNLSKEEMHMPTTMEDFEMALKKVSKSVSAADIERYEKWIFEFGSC

SMILES: COc1cc(-n2cnc3ccc(-c4ccc(C)c(N)c4)nc32)cc(OC)c1OC
- IC50 [1]: 0.9 nM
- Activity [2]: 0.41%
- IC50 [3]: 10 nM
- Tmax [4]: 8.4 min
- Kd [5]: 1810 nM
- IC50 [6]: 4 nM
- Activity [7]: 27.01%
- Activity [8]: Non-Toxic
- Activity [9]: Active
- Activity [10]: 0.36%
- IC50 [11]: 4.2 nM
- half-life [12]: 115 min
- Activity [13]: 29.59%
- MRT inf [14]: 2.47 h
- Activity [15]: Non-Toxic
- MRT last at 24 h [16]: 1.83 h
- Activity [17]: Non-Toxic
- Activity [18]: 100%
- half-life at 1 µM [19]: 2340 min
- IC50 [20]: 2 nM
- Activity [21]: inactive
- Activity [22]: Non-Toxic
- Activity [23]: Non-Toxic
- Activity [24]: Non-Toxic
- Activity [25]: Active
- Kd [26]: > 50 µM
- Activity [27]: Non-Toxic
- Activity [28]: Non-Toxic
- Activity [29]: 21.54%
- IC50 [30]: 2000 nM
- inhibition [31]: Dose-Dependent Effect
- IC50 [32]: 11 nM
- Activity [33]: Toxic
- IC50 [34]: 4.8 nM
- Activity [35]: inactive
- Activity [36]: Active
- Activity [37]: Non-Toxic
- Activity [38]: Non-Toxic
- IC50 [39]: 3 nM
